Assay results reported in patent US20210395327A1, “Growth Hormone-Releasing Hormone Antagonists and Uses Thereof” (United States Government As Represented By The Department …, priority 2019, published 2021).
Read-outs that look alike come from different tables or passages of the source. Blank lines part the entries; values can stand above or below the molecule they belong to. Non-standard residues stand in square brackets, D forms with d. Residues, ends and D or L forms follow the SMILES beside them. *: point of attachment. Phenylacetyl(2,3,4,5,6-F5) = O=C(Cc1c(F)c(F)c(F)c(F)c1F)*; Phe(4-Cl) = N[C@@H](Cc1ccc(Cl)cc1)C(=O)O; hArg = N=C(N)NCCCC[C@H](N)C(=O)O; 12Ado = NCCCCCCCCCCCC(=O)O; Nle = CCCC[C@H](N)C(=O)O; Orn = NCCC[C@H](N)C(=O)O; Abu = CC[C@H](N)C(=O)O; PhAc = O=C(Cc1ccccc1)*; Aoc = NCCCCCCCC(=O)O

Legend:
[1] = tested on: KATOIII stomach cancer cells; assay: In vitro cell viability, KATOIII; format: cell-based, human; conditions: antagonist 5 μM for 72 h, cell proliferation assay; MIA602 = 1
Protocol: (§1) The inhibitory effects of the various synthesized GHRH antagonists were tested in cell proliferation assays in various human cancer cell lines including stomach cancer (KATOIII, N87), colon cancer (HT-29), urothelial cancer (J82, RT4), pancreatic cancer (PANC-1, CFPAC-1), prostatic cancer (PC3), breast cancer (MX-1, HCC1806), ovarian cancer (SK-OV-3, OVCAR-3) and lung cancer (HCC827, H460).
(§2) Cell culture. Human cancer cell lines including pancreatic (PANC-1 and CFPAC-1), lung (HCC827 and H460), stomach (NCI-N87 and KATOIII), urothelial (J82, RT4), prostatic (PC3), breast (MX-1 and HCC 1806), colorectal (HT-29), and ovarian (SK-OV-3 and OVCAR-3) were obtained from the American Type Culture Collection (ATCC) and cultured at 37° C. in a humidified 95% air/5% CO2 atmosphere in the medium recommended by ATCC.
(§3) In vitro cell viability. Cell viability was analyzed as follows: cancer cells including pancreatic (PANC-1 and CFPAC-1), lung (HCC827 and H460), stomach (NCI-N87 and KATOIII), urothelial (J82, RT4), prostatic (PC3) and breast (MX-1 and HCC 1806), colorectal (HT-29) and ovarian (SK-OV-3 and OVCAR-3) were grown on 96 well plates to ˜60% confluence, the cells were starved for 24 h in culture medium containing 0.5% FBS. Cells were then treated with GHRH antagonists MIA602 AVR compounds at concentrations of 1, 2.5 or 5 μM, or vehicle (0.1% DMSO) in quintuplicates for 72 hours. The medium was replaced every 48 hours. Cell viability was measured using CellTiter 96 aqueous one solution kit (Promega). Inhibitory effects of tested AVR compounds in comparison to that of MIA602 are presented as inhibitory potency.
(§4) Inhibitory effects of selected AVR compounds in comparison to that of MIA602 are presented as inhibitory potency (e.g., percentage of inhibition). […] The cell lines tested including lung cancer HCC827 (FIG. 2A), pancreatic cancer CFPAC-1 (FIG. 2B), stomach cancer N87 (FIG. 2C), colon cancer HT-29 (FIG. 2D), breast cancers MX-1 and HCC1806 (FIGS. 2 E, F). Based on the results of cell proliferation assay after cancer cells were treated with antagonist at concentration of 5 μM for 72H, the relative inhibitory potency of AVR antagonists in comparison to MIA-602 is summarized in Table 3 A and B. Over 60 AVR compounds were tested in 12 cancer cell lines.

HCC827 lung cancer cells = assay: In vitro cell viability, HCC827; format: cell-based, human; conditions: antagonist 5 μM for 72 h, cell proliferation assay; MIA602 = 1
Protocol: as §1, §2, §3, §4
(§5) Based on the results of cell proliferation assay after cancer cells were treated with antagonist at concentration of 5 µM for 72H, * at concentration of 2 µM for 72 H.

[2] = tested on: CFPAC-1 pancreatic cancer cells; assay: In vitro cell viability, CFPAC-1; format: cell-based, human; conditions: antagonist 5 μM for 72 h, cell proliferation assay; MIA602 = 1
Protocol: as §1, §2, §3, §4, §5

[3] = target: T1, membrane GHRH-receptors on human anterior pituitary cells (Homo sapiens, UniProt Q02643); assay: Receptor binding, displacement of 125I-[His1,Nle27]-hGH-RH(1-32)NH2 on human pituitary membranes
T1 construct: Human pituitary was purchased from the National Hormone and Peptide Program; tissue National Hormone and Peptide Program; host or cells: human pituitary (membrane fractions)
T1 sequence (Q02643 23-423): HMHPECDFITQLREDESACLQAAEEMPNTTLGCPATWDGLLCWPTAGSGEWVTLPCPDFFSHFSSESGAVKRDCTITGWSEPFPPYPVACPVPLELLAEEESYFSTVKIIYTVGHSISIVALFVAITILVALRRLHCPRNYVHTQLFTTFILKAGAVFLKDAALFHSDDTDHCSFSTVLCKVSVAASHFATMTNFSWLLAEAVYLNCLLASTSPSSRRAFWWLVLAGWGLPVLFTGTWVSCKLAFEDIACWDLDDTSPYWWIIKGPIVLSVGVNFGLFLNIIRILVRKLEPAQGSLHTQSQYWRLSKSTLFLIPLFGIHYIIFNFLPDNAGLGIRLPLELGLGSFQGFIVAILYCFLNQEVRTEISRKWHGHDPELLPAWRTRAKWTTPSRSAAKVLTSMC
Protocol: Receptor binding affinities in vitro. Preparation of human pituitary membrane fractions and receptor binding of analogs of GH-RH were performed (Halmos G, Rekasi Z, Szoke B, Schally A V. (1993) Receptor 3:87-97). Human pituitary was purchased from the National Hormone and Peptide Program. […] Relative affinities compared to hGH-RH(1-29)NH2 were calculated as the ratio of IC50 (dose causing 50% inhibition of specific binding to receptors) of the tested peptides to the IC50 of hGH-RH(1-29)NH2. The values were calculated from technical duplicate tubes.
Nineteen new AVR analogs of GHRH were tested in the receptor binding assay. Table 6 presents the IC50 values of GHRH antagonists to membrane GHRH-receptors binding on human anterior pituitary cells.

[4] = membrane receptors on human anterior pituitary cells, mean of two to three determinations, read-out: IC50

IC50 [3, 4]: 0.31 nM
SMILES: CCCC[C@H](NC(=O)[C@@H](NC(=O)[C@H](CC(=O)O)NC(=O)[C@H](CCC(N)=O)NC(=O)[C@H](CC(C)C)NC(=O)[C@H](CC(C)C)NC(=O)[C@H](CCCN)NC(=O)[C@H](Cc1c[nH]cn1)NC(=O)[C@H](C)NC(=O)[C@H](CO)NC(=O)[C@H](CC(C)C)NC(=O)[C@H](CCC(N)=O)NC(=O)[C@H](CC)NC(=O)[C@H](CC(C)C)NC(=O)[C@@H](NC(=O)[C@H](CCCCN)NC(=O)[C@H](CCCNC(=N)N)NC(=O)[C@H](Cc1ccc(OC)cc1)NC(=O)[C@H](CCCNC(=N)N)NC(=O)[C@H](CC(N)=O)NC(=O)[C@@H](NC(=O)[C@H](Cc1ccc(Cl)cc1)NC(=O)[C@@H](NC(=O)[C@H](C)NC(=O)[C@H](CC(=O)O)NC(=O)[C@@H](CCCNC(=N)N)NC(=O)[C@H](Cc1ccc(O)cc1)NC(=O)CCCCCCCCCCCNC(=O)Cc1c(F)c(F)c(F)c(F)c1F)[C@@H](C)CC)[C@@H](C)O)C(C)C)[C@@H](C)CC)C(=O)N[C@H](CCCNC(=N)N)C(=O)N[C@@H](CCCCNC(=N)N)C(=O)NCCCCCCCCCCCC(N)=O [AVR-620, 5FPhAC-Ada-Tyr-DArg-Asp-Ala-Ile-Cpa-Thr-Asn-Arg-Tyr(Me)-Arg-Lys-Val-Leu-Abu-Gln-Leu-Ser-Ala-His-Orn-Leu-Leu-Gln-Asp-Ile-Nle-DArg-Har-Ada-NH2] ({Phenylacetyl(2,3,4,5,6-F5)-12Ado}-Y[dR]DAI[Phe(4-Cl)]TNRY(Me)RKVL[Abu]QLSAH[Orn]LLQDI[Nle][dR][hArg][12Ado]-NH2)
relative inhibitory potency in comparison to MIA-602, Stomach KATOIII [1]: 1.769 | relative inhibitory potency in comparison to MIA-602, Lung IICC827 (HCC827 lung cancer cells): 3.753 | relative inhibitory potency in comparison to MIA-602, Pancreatic CFPAC-1 [2]: 1.567

SMILES: CCCC[C@H](NC(=O)[C@@H](NC(=O)[C@H](CC(=O)O)NC(=O)[C@H](CCC(N)=O)NC(=O)[C@H](CC(C)C)NC(=O)[C@H](CC(C)C)NC(=O)[C@H](CCCCN)NC(=O)[C@H](CCCNC(=N)N)NC(=O)[C@H](C)NC(=O)[C@H](CO)NC(=O)[C@H](CC(C)C)NC(=O)[C@H](CCC(N)=O)NC(=O)[C@H](CC)NC(=O)[C@H](CC(C)C)NC(=O)[C@@H](NC(=O)[C@H](CCCCN)NC(=O)[C@H](CCCNC(=N)N)NC(=O)[C@H](Cc1ccc(OC)cc1)NC(=O)[C@H](CCCCNC(=N)N)NC(=O)[C@H](CC(N)=O)NC(=O)[C@@H](NC(=O)[C@H](Cc1ccc(Cl)cc1)NC(=O)[C@@H](NC(=O)[C@H](C)NC(=O)[C@H](CC(=O)O)NC(=O)[C@@H](CCCNC(=N)N)NC(=O)[C@H](Cc1ccc(O)cc1)NC(=O)CCCCCCCCCCCNC(=O)Cc1ccccc1)[C@@H](C)CC)[C@@H](C)O)C(C)C)[C@@H](C)CC)C(=O)N[C@H](CCCNC(=N)N)C(=O)N[C@@H](CCCCNC(=N)N)C(=O)NCCCCCCCCCCCC(N)=O [AVR-332] ({PhAc-12Ado}-Y[dR]DAI[Phe(4-Cl)]TN[hArg]Y(Me)RKVL[Abu]QLSARKLLQDI[Nle][dR][hArg][12Ado]-NH2)
relative inhibitory potency in comparison to MIA-602, Stomach KATOIII [1]: 1.643 | IC50 [3, 4]: 0.34 nM

SMILES: CCCC[C@H](NC(=O)[C@@H](NC(=O)[C@H](CC(=O)O)NC(=O)[C@H](CCC(N)=O)NC(=O)[C@H](CC(C)C)NC(=O)[C@H](CC(C)C)NC(=O)[C@H](CCCCN)NC(=O)[C@H](CCCNC(=N)N)NC(=O)[C@H](C)NC(=O)[C@H](CO)NC(=O)[C@H](CC(C)C)NC(=O)[C@H](CCC(N)=O)NC(=O)[C@H](CC)NC(=O)[C@H](CC(C)C)NC(=O)[C@@H](NC(=O)[C@H](CCCCN)NC(=O)[C@H](CCCNC(=N)N)NC(=O)[C@H](Cc1ccc(OC)cc1)NC(=O)[C@H](CCCNC(=N)N)NC(=O)[C@H](CC(N)=O)NC(=O)[C@@H](NC(=O)[C@H](Cc1ccc(Cl)cc1)NC(=O)[C@@H](NC(=O)[C@H](C)NC(=O)[C@H](CC(=O)O)NC(=O)[C@@H](CCCNC(=N)N)NC(=O)[C@H](Cc1ccc(O)cc1)NC(=O)CCCCCCCCCCCNC(=O)Cc1ccccc1)[C@@H](C)CC)[C@@H](C)O)C(C)C)[C@@H](C)CC)C(=O)N[C@H](CCCNC(=N)N)C(=O)N[C@@H](CCCCNC(=N)N)C(=O)NC [AVR-234, PhAC-Ada-Tyr-DArg-Asp-Ala-Ile-Cpa-Thr-Asn-Arg-Tyr(Me)-Arg-Lys-Val-Leu-Abu-Gln-Leu-Ser-Ala-Arg-Lys-Leu-Leu-Gln-Asp-Ile-Nle-DArg-Har-NHCH3] ({PhAc-12Ado}-Y[dR]DAI[Phe(4-Cl)]TNRY(Me)RKVL[Abu]QLSARKLLQDI[Nle][dR][hArg]-NHMe)
relative inhibitory potency in comparison to MIA-602, Stomach KATOIII [1]: 1.709 | relative inhibitory potency in comparison to MIA-602, Lung IICC827 (HCC827 lung cancer cells): 4.510 | relative inhibitory potency in comparison to MIA-602, Pancreatic CFPAC-1 [2]: 2.205 | IC50 [3]: 0.45 nM

IC50 [3, 4]: 0.25 nM
SMILES: CCCC[C@H](NC(=O)[C@@H](NC(=O)[C@H](CC(=O)O)NC(=O)[C@H](CCC(N)=O)NC(=O)[C@H](CC(C)C)NC(=O)[C@H](CC(C)C)NC(=O)[C@H](CCCCN)NC(=O)[C@H](CCCNC(=N)N)NC(=O)[C@H](C)NC(=O)[C@H](CO)NC(=O)[C@H](CC(C)C)NC(=O)[C@H](CCC(N)=O)NC(=O)[C@H](CC)NC(=O)[C@H](CC(C)C)NC(=O)[C@@H](NC(=O)[C@H](CCCCN)NC(=O)[C@H](CCCNC(=N)N)NC(=O)[C@H](Cc1ccc(OC)cc1)NC(=O)[C@H](CCCCNC(=N)N)NC(=O)[C@H](CC(N)=O)NC(=O)[C@@H](NC(=O)[C@H](Cc1ccc(Cl)cc1)NC(=O)[C@@H](NC(=O)[C@H](C)NC(=O)[C@H](CC(=O)O)NC(=O)[C@@H](CCCNC(=N)N)NC(=O)[C@H](Cc1ccc(O)cc1)NC(=O)CCCCCCCCCCCNC(=O)Cc1c(F)c(F)c(F)c(F)c1F)[C@@H](C)CC)[C@@H](C)O)C(C)C)[C@@H](C)CC)C(=O)N[C@H](CCCNC(=N)N)C(=O)N[C@@H](CCCCNC(=N)N)C(=O)NCCCCCCCC(=O)NC [AVR-322, 5FPhAC-Ada-Tyr-DArg-Asp-Ala-Ile-Cpa-Thr-Asn-Har-Tyr(Me)-Arg-Lys-Val-Leu-Abu-Gln-Leu-Ser-Ala-Arg-Lys-Leu-Leu-Gln-Asp-Ile-Nle-DArg-Har-Aoc-NHCH3] ({Phenylacetyl(2,3,4,5,6-F5)-12Ado}-Y[dR]DAI[Phe(4-Cl)]TN[hArg]Y(Me)RKVL[Abu]QLSARKLLQDI[Nle][dR][hArg][Aoc]-NHMe)
relative inhibitory potency in comparison to MIA-602, Stomach KATOIII [1]: 1.296
